Experiment [1] concerns the target T1, recombinant human FLAP protein (Homo sapiens, UniProt P20292).
T1 construct: made in house; host or cells: Sf9 insect cells (100,000×g membrane pellet used)
T1 sequence (P20292 1-161): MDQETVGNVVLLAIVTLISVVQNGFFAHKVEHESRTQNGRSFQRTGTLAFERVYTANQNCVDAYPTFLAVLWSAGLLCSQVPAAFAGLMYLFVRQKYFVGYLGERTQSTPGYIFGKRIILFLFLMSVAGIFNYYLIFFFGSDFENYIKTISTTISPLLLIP
The experiment is described as follows: FLAP binding assay (SPA, displacement of [125I]L-691,831). Conditions: membranes of sf9 cells expressing recombinant human FLAP; [125I]L-691,831 probe; read-out: FLAP binding IC50. The method, boiled down:
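Membranes from sf9 cells expressing human FLAP in pH 7.5 Tris buffer (MgCl2, EDTA, PMSF). Non-specific binding defined with 10 μM cold L-691,831.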
Background: Loss of bound radioactivity is the signal in a displacement assay; it reports binding, not function.

Experiment [2] concerns synthesis of LTB4 in human whole blood. Put plainly: Human whole blood assay (inhibition of LTB4 synthesis, calcimycin stimulated). It counts as cell-based. Conditions: heparinized human whole blood, calcimycin 20 μM, plasma LTB4. Summed up:
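Heparinized human whole blood was preincubated with compound for 15 min at 37° C, then stimulated with calcimycin (20 μM final, in PBS pH 7.4) for a further 30 min at 37° C. Plasma LTB4 was quantified by antibody-based homogeneous time-resolved fluorescence.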

For the molecule `CC(C)C(C)(c1ccc(-c2cnc(N)nc2)cc1)c1noc(N2CCOCC2)n1` (stereo not shown) [Example 89, 5-(4-{3-methyl-2-[5-(morpholin-4-yl)-1,2,4-oxadiazol-3-yl]butan-2-yl}phenyl)pyrimidin-2-amine], the IC50 in experiment [1] came to 13 nM; in experiment [2] it was 270 nM.

As to `CC(C)C(C)(c1ccc(-c2cnc(N)nc2)cc1)c1noc(C(=O)N2CCOCC2)n1` (stereo not shown) [Example 90, (3-{2-[4-(2-aminopyrimidin-5-yl)phenyl]-3-methylbutan-2-yl}-1,2,4-oxadiazol-5-yl)(morpholin-4-yl)methanone], the IC50 is 63 nM in experiment [1] and 1500 nM in experiment [2].

Regarding `CC(C)C(C)(c1ccc(-c2cnc(N)nc2)cc1)c1noc(C(=O)N2CCN(C)CC2)n1` (stereo not shown) [Example 91, (3-{2-[4-(2-aminopyrimidin-5-yl)phenyl]-3-methylbutan-2-yl}-1,2,4-oxadiazol-5-yl)(4-methylpiperazin-1-yl)methanone], the IC50 in experiment [1] was 54 nM; in experiment [2], 1300 nM.

Regarding `CC(C)C(C)(c1ccc(-c2cnc(N)nc2)cc1)c1noc(C(C)(C)CC(=O)O)n1` (stereo not shown) [Example 92, 3-(3-{2-[4-(2-aminopyrimidin-5-yl)phenyl]-3-methylbutan-2-yl}-1,2,4-oxadiazol-5-yl)-3-methylbutanoic acid], the IC50 in experiment [1] was 110 nM; in experiment [2], greater than 5000 nM.

Consider `CC(C)C(C)(c1ccc(-c2cnc(N)nc2)cc1)c1noc(CC(C)(C)C(=O)O)n1` (stereo not shown) [Example 93, 3-(3-{2-[4-(2-aminopyrimidin-5-yl)phenyl]-3-methylbutan-2-yl}-1,2,4-oxadiazol-5-yl)-2,2-dimethylpropanoic acid], for which the IC50 in experiment [1] was 240 nM; in experiment [2], greater than 5000 nM.

On to `CC(C)C(C)(c1ccc(-c2cnc(N)nc2)cc1)c1noc(CCC(=O)O)n1` (stereo not shown) [Example 94, 3-(3-{2-[4-(2-aminopyrimidin-5-yl)phenyl]-3-methylbutan-2-yl}-1,2,4-oxadiazol-5-yl)propanoic acid], for which the IC50 is 350 nM in experiment [1] and greater than 5000 nM in experiment [2].

Regarding `CC(C)C(C)(c1ccc(-c2cnc(N)nc2)cc1)c1noc(C2(C(=O)O)CC2)n1` (stereo not shown) [Example 95, 1-(3-{2-[4-(2-aminopyrimidin-5-yl)phenyl]-3-methylbutan-2-yl}-1,2,4-oxadiazol-5-yl)cyclopropanecarboxylic acid], the IC50 in experiment [1] is 130 nM; in experiment [2], greater than 5000 nM.

Regarding `CC(C)C(C)(c1ccc(-c2cnc(N)nc2)cc1)c1noc(N2CCN(C)CC2)n1` (stereo not shown) [Example 96, 5-(4-{3-methyl-2-[5-(4-methylpiperazin-1-yl)-1,2,4-oxadiazol-3-yl]butan-2-yl}phenyl)pyrimidin-2-amine], the results for the IC50 in experiment [1] and in experiment [2] were 7.5 nM and 150 nM, respectively.

Consider `CN(C)C(=O)Cn1cc(-c2nc(C(C)(c3ccc(-c4cnc(N)nc4)cc3)C3CCC3)no2)cn1` (stereo not shown) [Example 97, 2-[4-(3-{1-[4-(2-aminopyrimidin-5-yl)phenyl]-1-cyclobutylethyl}-1,2,4-oxadiazol-5-yl)-1H-pyrazol-1-yl]-N,N-dimethylacetamide], for which the IC50 in experiment [1] was 8.8 nM; in experiment [2], 170 nM.

For the molecule `CNC(=O)Cn1cc(-c2nc(C(C)(c3ccc(-c4cnc(N)nc4)cc3)C3CCC3)no2)cn1` (stereo not shown) [Example 98, 2-[4-(3-{1-[4-(2-aminopyrimidin-5-yl)phenyl]-1-cyclobutylethyl}-1,2,4-oxadiazol-5-yl)-1H-pyrazol-1-yl]-N-methylacetamide], the IC50 in experiment [1] is 12 nM; in experiment [2], 570 nM.

For `CC(c1ccc(-c2cnc(N)nc2)cc1)(c1noc(-c2cnn(C3COC3)c2)n1)C1CCC1` (stereo not shown) [Example 99, 5-[4-(1-cyclobutyl-1-{5-[1-(oxetan-3-yl)-1H-pyrazol-4-yl]-1,2,4-oxadiazol-3-yl}ethyl)phenyl]pyrimidin-2-amine], the IC50 in experiment [1] worked out at 3.9 nM; in experiment [2], 200 nM.

Regarding `COCCn1cc(-c2nc([C@@](C)(c3ccc(-c4cnc(N)nc4)cc3)C3CCC3)no2)cn1` [Example 100, 5-{4-[(1R)-1-cyclobutyl-1-{5-[1-(2-methoxyethyl)-1H-pyrazol-4-yl]-1,2,4-oxadiazol-3-yl}ethyl]phenyl}pyrimidin-2-amine], the figures for the IC50 in experiment [1] and in experiment [2] were 2.3 nM and 110 nM, respectively.

Turning to `COCCn1cc(-c2nc([C@](C)(c3ccc(-c4cnc(N)nc4)cc3)C3CCC3)no2)cn1` [Example 101, 5-{4-[(1S)-1-cyclobutyl-1-{5-[1-(2-methoxyethyl)-1H-pyrazol-4-yl]-1,2,4-oxadiazol-3-yl}ethyl]phenyl}pyrimidin-2-amine], the IC50 is 280 nM in experiment [1] and greater than 5000 nM in experiment [2].

`C[C@@](c1ccc(-c2cnc(N)nc2)cc1)(c1noc(-c2cnn(C3COC3)c2)n1)C1CCC1` [Example 102, 5-{4-[(1R)-1-cyclobutyl-1-{5-[1-(oxetan-3-yl)-1H-pyrazol-4-yl]-1,2,4-oxadiazol-3-yl}ethyl]phenyl}pyrimidin-2-amine]: the IC50 came to 1.6 nM in experiment [1] and 51 nM in experiment [2].

As for `C[C@](c1ccc(-c2cnc(N)nc2)cc1)(c1noc(-c2cnn(C3COC3)c2)n1)C1CCC1` [Example 103, 5-{4-[(1S)-1-cyclobutyl-1-{5-[1-(oxetan-3-yl)-1H-pyrazol-4-yl]-1,2,4-oxadiazol-3-yl}ethyl]phenyl}pyrimidin-2-amine], the IC50 in experiment [1] was determined as 130 nM; in experiment [2], 2700 nM.

Take `CN(C)C(=O)Cn1cc(-c2nc([C@@](C)(c3ccc(-c4cnc(N)nc4)cc3)C3CCC3)no2)cn1` [Example 104, 2-[4-(3-{(1R)-1-[4-(2-aminopyrimidin-5-yl)phenyl]-1-cyclobutylethyl}-1,2,4-oxadiazol-5-yl)-1H-pyrazol-1-yl]-N,N-dimethylacetamide]: the IC50 in experiment [1] worked out at 6.1 nM; in experiment [2], 130 nM.

As to `CN(C)C(=O)Cn1cc(-c2nc([C@](C)(c3ccc(-c4cnc(N)nc4)cc3)C3CCC3)no2)cn1` [Example 105, 2-[4-(3-{(1S)-1-[4-(2-aminopyrimidin-5-yl)phenyl]-1-cyclobutylethyl}-1,2,4-oxadiazol-5-yl)-1H-pyrazol-1-yl]-N,N-dimethylacetamide], the IC50 in experiment [1] was 490 nM; in experiment [2] it was greater than 5000 nM.

For `CC(C)C(C)(c1ccc(-c2cnc(N)nc2)cc1)c1noc(-c2cnn(CC(=O)N(C)C)c2)n1` (stereo not shown) [Example 106, 2-[4-(3-{2-[4-(2-aminopyrimidin-5-yl)phenyl]-3-methylbutan-2-yl}-1,2,4-oxadiazol-5-yl)-1H-pyrazol-1-yl]-N,N-dimethylacetamide], the IC50 was determined as 4.8 nM in experiment [1] and 76 nM in experiment [2].

In the case of `CC(C)[C@](C)(c1ccc(-c2cnc(N)nc2)cc1)c1noc(-c2cnn(CC(C)(C)O)c2)n1` [Example 107, 1-[4-(3-{(2R)-2-[4-(2-aminopyrimidin-5-yl)phenyl]-3-methylbutan-2-yl}-1,2,4-oxadiazol-5-yl)-1H-pyrazol-1-yl]-2-methylpropan-2-ol], the IC50 in experiment [1] came out at 0.86 nM; in experiment [2] it was 17 nM.

For `CC(C)[C@@](C)(c1ccc(-c2cnc(N)nc2)cc1)c1noc(-c2cnn(CC(C)(C)O)c2)n1` [Example 108, 1-[4-(3-{(2S)-2-[4-(2-aminopyrimidin-5-yl)phenyl]-3-methylbutan-2-yl}-1,2,4-oxadiazol-5-yl)-1H-pyrazol-1-yl]-2-methylpropan-2-ol], the IC50 was 8.7 nM in experiment [1] and 320 nM in experiment [2].

`CC(C)C(C)(c1ccc(-c2cnc(N)nc2)cc1)c1noc(C2CCN(C(=O)OC(C)(C)C)CC2)n1` (stereo not shown) [Example 109, 4-(3-{1-[4-(2-Amino-pyrimidin-5-yl)-phenyl]-1,2-dimethyl-propyl}-1,2,4-oxadiazol-5-yl)-piperidine-1-carboxylic acid tert-butyl ester]: the IC50 amounted to 46 nM in experiment [1] and 1500 nM in experiment [2].

For the molecule `CC(C)C(C)(c1ccc(-c2cnc(N)nc2)cc1)c1noc(C2CCNCC2)n1` (stereo not shown) [Example 110, 5-(4-{3-methyl-2-[5-(piperidin-4-yl)-1,2,4-oxadiazol-3-yl]butan-2-yl}phenyl)pyrimidin-2-amine], the results for the IC50 in experiment [1] and in experiment [2] were 190 nM and 2800 nM, respectively.

Consider `CC(C)C(C)(c1ccc(-c2cnc(N)nc2)cc1)c1noc(C2CCCN(C(=O)OC(C)(C)C)C2)n1` (stereo not shown) [Example 111, tert-butyl 3-(3-{2-[4-(2-aminopyrimidin-5-yl)phenyl]-3-methylbutan-2-yl}-1,2,4-oxadiazol-5-yl)piperidine-1-carboxylate], for which the values for the IC50 in experiment [1] and in experiment [2] were 15 nM and 2900 nM, respectively.

Take `CC(C)C(C)(c1ccc(-c2cnc(N)nc2)cc1)c1noc(C2CCCCN2C(=O)OC(C)(C)C)n1` (stereo not shown) [Example 112, tert-butyl 2-(3-{2-[4-(2-aminopyrimidin-5-yl)phenyl]-3-methylbutan-2-yl}-1,2,4-oxadiazol-5-yl)piperidine-1-carboxylate]: the IC50 is 190 nM in experiment [1] and greater than 5000 nM in experiment [2].

For the molecule `CC(C)C(C)(c1ccc(-c2cnc(N)nc2)cc1)c1noc(C2CCCNC2)n1` (stereo not shown) [Example 113, 5-(4-{3-methyl-2-[5-(piperidin-3-yl)-1,2,4-oxadiazol-3-yl]butan-2-yl}phenyl)pyrimidin-2-amine], the IC50 in experiment [1] worked out at 66 nM; in experiment [2] it was 3100 nM.

Take `CC(C)C(C)(c1ccc(-c2cnc(N)nc2)cc1)c1noc(C2CCCCN2)n1` (stereo not shown) [Example 114, 5-(4-{3-methyl-2-[5-(piperidin-2-yl)-1,2,4-oxadiazol-3-yl]butan-2-yl}phenyl)pyrimidin-2-amine]: the IC50 in experiment [1] amounted to 21 nM; in experiment [2], 1100 nM.

By IC50 is commonly meant the point on the concentration scale where inhibition reaches its midpoint.

For the origin of these results see patent US8658661B2, “Oxadiazole inhibitors of leukotriene production” (Boehringer Ingelheim International GmbH, priority 2010, dated 2014).
